Reference: the NIST ThermoML archive (doi:10.1016/j.jct.2008.09.018)

Experiment: xn = mol fraction of the nth substance listed
Conditions: 101 kPa, Liquid; for speed of sound: Pulse-echo method; for viscosity: Capillary tube (Ostwald / Ubbelohde) method; for mass density: Vibrating tube method

CCCCCCCCCO [nonan-1-ol] + OCCO
Conditions	mass density [kg/m3]	speed of sound [m/s]	viscosity [mPa·s]
293.15 K, x2 = 0	–	1381.6	–
293.15 K, x2 = 0.1002	–	1383.9	–
293.15 K, x2 = 0.1979	–	1387.2	–
293.15 K, x2 = 0.2964	–	1391.9	–
293.15 K, x2 = 0.3641	–	1396.2	–
293.15 K, x2 = 0.4533	–	1403.7	–
293.15 K, x2 = 0.5432	–	1414.2	–
293.15 K, x2 = 0.6441	–	1431.5	–
293.15 K, x2 = 0.7517	–	1460.2	–
293.15 K, x2 = 0.9308	–	1571.1	–
298.15 K, x2 = 0	824.48	1364.4	9.494
298.15 K, x2 = 0.1002	833.41	1366.8	9.581
298.15 K, x2 = 0.1979	843.96	1370.3	10.01
298.15 K, x2 = 0.2964	856.32	1375.2	10.67
298.15 K, x2 = 0.3641	866.44	1379.8	11.26
298.15 K, x2 = 0.4533	881.71	1387.6	12.22
298.15 K, x2 = 0.5432	900.44	1398.4	13.41
298.15 K, x2 = 0.6441	926.38	1416.2	15.09
298.15 K, x2 = 0.701	944.22	–	–
298.15 K, x2 = 0.7517	963.14	1445.4	17.32
298.15 K, x2 = 0.9308	1055.33	1558.5	19.28
303.15 K, x2 = 0	821.05	1347.4	7.994
303.15 K, x2 = 0.1002	830.02	1350	8.014
303.15 K, x2 = 0.1979	840.61	1353.6	8.359
303.15 K, x2 = 0.2964	852.92	1358.8	8.897
303.15 K, x2 = 0.3641	863	1363.5	9.37
303.15 K, x2 = 0.4533	878.3	1371.5	10.14
303.15 K, x2 = 0.5432	896.94	1382.7	11.09
303.15 K, x2 = 0.6441	922.82	1400.8	12.4
303.15 K, x2 = 0.701	940.61	–	–
303.15 K, x2 = 0.7517	959.57	1430.7	14.12
303.15 K, x2 = 0.9308	1051.63	1545.7	15.47
308.15 K, x2 = 0	817.57	1330.5	6.713
308.15 K, x2 = 0.1002	826.58	1333.2	6.801
308.15 K, x2 = 0.1979	837.18	1337.1	7.044
308.15 K, x2 = 0.2964	849.41	1342.4	7.487
308.15 K, x2 = 0.3641	859.49	1347.3	7.872
308.15 K, x2 = 0.4533	874.74	1355.6	8.493
308.15 K, x2 = 0.5432	893.37	1367.1	9.257
308.15 K, x2 = 0.6441	919.23	1385.6	10.31
308.15 K, x2 = 0.701	937.01	–	–
308.15 K, x2 = 0.7517	956	1416.1	11.66
308.15 K, x2 = 0.9308	1048.12	1532.9	12.67
313.15 K, x2 = 0	814.19	1313.6	5.657
313.15 K, x2 = 0.1002	823.15	1316.5	5.782
313.15 K, x2 = 0.1979	833.73	1320.6	5.984
313.15 K, x2 = 0.2964	845.93	1326.3	6.352
313.15 K, x2 = 0.3641	855.98	1331.3	6.667
313.15 K, x2 = 0.4533	871.22	1339.8	7.176
313.15 K, x2 = 0.5432	889.84	1351.6	7.796
313.15 K, x2 = 0.6441	915.68	1370.4	8.65
313.15 K, x2 = 0.701	933.39	–	–
313.15 K, x2 = 0.7517	952.37	1401.6	9.722
313.15 K, x2 = 0.9308	1044.52	1520.3	10.47
